How the values were obtained:
[1] = Metabolic stability in dog liver microsomes assessed as compound remaining at 1 uM after 30 mins in presence of NADPH regeneration system by LC-MS/MS analysis; assay type: ADME, Canis lupus familiaris, Microsome; conditions: read-out: Stability
[2] = Metabolic stability in mouse liver microsomes assessed as compound remaining at 1 uM after 30 mins in presence of NADPH regeneration system by LC-MS/MS analysis; assay type: ADME, Microsome; conditions: read-out: Stability
[3] = Effective permeability of the compound at 10 uM after 5 hrs by PAMPA; assay type: ADME; conditions: read-out: Peff
CYP2C19 = CYP2C19 (Homo sapiens, UniProt P33261); assay: Inhibition of CYP2C19 in human liver microsomes assessed as reduction in S-mephenytoin 4-hydroxylase activity at 10 uM preincubated for 5 mins followed by NADPH addition and measured after 15 mins by LC-MS/MS analysis relative to control; assay type: ADME; conditions: probe S-mephenytoin (4-hydroxylation)
Sequence of CYP2C19 (P33261 whole entry): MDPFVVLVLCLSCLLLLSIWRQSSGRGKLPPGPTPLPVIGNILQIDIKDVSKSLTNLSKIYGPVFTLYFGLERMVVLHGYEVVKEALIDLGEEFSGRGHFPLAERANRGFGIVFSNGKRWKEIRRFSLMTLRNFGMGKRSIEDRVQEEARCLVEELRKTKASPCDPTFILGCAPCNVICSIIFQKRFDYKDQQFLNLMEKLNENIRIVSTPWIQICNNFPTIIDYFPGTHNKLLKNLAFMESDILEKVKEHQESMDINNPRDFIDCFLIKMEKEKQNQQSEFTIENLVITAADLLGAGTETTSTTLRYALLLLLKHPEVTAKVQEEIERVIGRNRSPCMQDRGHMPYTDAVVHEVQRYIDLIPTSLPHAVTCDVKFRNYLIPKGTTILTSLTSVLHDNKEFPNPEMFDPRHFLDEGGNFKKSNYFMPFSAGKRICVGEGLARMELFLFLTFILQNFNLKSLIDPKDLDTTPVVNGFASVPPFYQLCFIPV

CYP2C9 = CYP2C9 (Homo sapiens, UniProt P11712); assay: Inhibition of CYP2C9 in human liver microsomes assessed as reduction in tolbutamide 4-hydroxylase activity at 10 uM preincubated for 5 mins followed by NADPH addition and measured after 15 mins by LC-MS/MS analysis relative to control; assay type: ADME; conditions: probe tolbutamide (4-hydroxylation)
Sequence of CYP2C9 (P11712 whole entry): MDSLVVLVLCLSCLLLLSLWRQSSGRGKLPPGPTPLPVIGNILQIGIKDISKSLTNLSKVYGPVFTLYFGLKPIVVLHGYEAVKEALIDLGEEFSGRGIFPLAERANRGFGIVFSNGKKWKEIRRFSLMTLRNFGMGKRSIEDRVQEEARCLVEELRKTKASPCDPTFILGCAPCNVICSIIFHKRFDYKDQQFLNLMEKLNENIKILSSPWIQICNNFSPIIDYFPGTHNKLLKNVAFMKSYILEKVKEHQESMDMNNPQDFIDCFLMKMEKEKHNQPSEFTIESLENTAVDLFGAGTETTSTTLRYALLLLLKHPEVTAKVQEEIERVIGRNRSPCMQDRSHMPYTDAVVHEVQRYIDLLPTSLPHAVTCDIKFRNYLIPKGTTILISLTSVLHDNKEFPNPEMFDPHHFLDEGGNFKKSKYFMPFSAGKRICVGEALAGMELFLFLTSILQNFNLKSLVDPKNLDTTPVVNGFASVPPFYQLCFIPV

CYP3A4 = CYP3A4 (Homo sapiens, UniProt P08684); assay: Inhibition of CYP3A4 in human liver microsomes assessed as reduction in midazolam 1-hydroxylase activity at 10 uM preincubated for 5 mins followed by NADPH addition and measured after 15 mins by LC-MS/MS analysis relative to control; assay type: ADME; conditions: probe midazolam (1-hydroxylation)
Sequence of CYP3A4 (P08684 whole entry): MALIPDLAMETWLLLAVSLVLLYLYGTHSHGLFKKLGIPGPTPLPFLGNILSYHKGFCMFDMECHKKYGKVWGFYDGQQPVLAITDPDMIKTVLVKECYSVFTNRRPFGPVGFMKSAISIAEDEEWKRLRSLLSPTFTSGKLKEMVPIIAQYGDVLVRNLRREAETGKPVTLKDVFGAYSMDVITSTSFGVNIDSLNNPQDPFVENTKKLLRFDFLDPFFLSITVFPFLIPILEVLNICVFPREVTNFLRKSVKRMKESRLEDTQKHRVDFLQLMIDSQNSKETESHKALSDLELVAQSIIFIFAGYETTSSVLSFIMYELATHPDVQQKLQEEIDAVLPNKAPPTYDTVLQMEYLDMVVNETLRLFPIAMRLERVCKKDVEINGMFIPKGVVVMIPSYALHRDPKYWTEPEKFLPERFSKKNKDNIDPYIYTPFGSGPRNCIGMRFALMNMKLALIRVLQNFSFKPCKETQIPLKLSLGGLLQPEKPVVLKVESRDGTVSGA

[4] = Metabolic stability in human liver microsomes assessed as compound remaining at 1 uM after 30 mins in presence of NADPH regeneration system by LC-MS/MS analysis; assay type: ADME, Microsome; conditions: read-out: Stability
CYP2D6 = CYP2D6 (Homo sapiens, UniProt P10635); assay: Inhibition of CYP2D6 in human liver microsomes assessed as reduction in dextromethorphan O-demethylase activity at 10 uM preincubated for 5 mins followed by NADPH addition and measured after 15 mins by LC-MS/MS analysis relative to control; assay type: ADME; conditions: probe dextromethorphan (O-demethylation)
Sequence of CYP2D6 (P10635 whole entry): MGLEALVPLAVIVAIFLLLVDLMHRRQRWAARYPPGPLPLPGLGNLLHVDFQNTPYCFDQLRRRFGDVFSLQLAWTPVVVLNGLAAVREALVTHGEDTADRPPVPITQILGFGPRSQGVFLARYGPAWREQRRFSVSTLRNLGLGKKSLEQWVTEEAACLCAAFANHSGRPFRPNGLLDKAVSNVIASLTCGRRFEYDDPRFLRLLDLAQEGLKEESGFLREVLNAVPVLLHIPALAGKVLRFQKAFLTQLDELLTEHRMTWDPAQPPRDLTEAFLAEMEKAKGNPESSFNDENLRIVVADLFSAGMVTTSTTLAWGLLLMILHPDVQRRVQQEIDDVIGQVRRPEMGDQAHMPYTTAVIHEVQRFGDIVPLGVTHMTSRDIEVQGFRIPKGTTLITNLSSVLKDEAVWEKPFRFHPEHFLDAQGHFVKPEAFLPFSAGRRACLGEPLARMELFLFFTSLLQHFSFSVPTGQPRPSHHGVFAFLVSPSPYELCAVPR

[5] = target: T1, Steroid hormone receptor ERR1 (Homo sapiens, UniProt P11474)
T1 sequence (P11474 whole entry): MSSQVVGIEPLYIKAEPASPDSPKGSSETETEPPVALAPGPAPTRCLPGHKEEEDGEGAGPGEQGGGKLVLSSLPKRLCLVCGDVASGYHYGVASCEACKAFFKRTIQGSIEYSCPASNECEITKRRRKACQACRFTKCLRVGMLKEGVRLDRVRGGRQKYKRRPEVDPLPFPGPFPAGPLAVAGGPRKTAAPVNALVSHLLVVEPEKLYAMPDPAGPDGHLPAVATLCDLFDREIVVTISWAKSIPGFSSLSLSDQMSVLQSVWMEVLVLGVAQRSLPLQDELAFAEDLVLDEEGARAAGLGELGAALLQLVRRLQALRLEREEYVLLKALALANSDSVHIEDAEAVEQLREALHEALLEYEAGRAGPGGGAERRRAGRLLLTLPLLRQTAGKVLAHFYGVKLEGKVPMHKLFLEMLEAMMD

CYP1A2 = target: T2, CYP1A2 (Homo sapiens, UniProt P05177); assay: Inhibition of CYP1A2 in human liver microsomes assessed as reduction in phenacetin O-deethylase activity at 10 uM preincubated for 5 mins followed by NADPH addition and measured after 15 mins by LC-MS/MS analysis relative to control; assay type: ADME; conditions: probe phenacetin (O-deethylation)
T2 sequence (P05177 whole entry): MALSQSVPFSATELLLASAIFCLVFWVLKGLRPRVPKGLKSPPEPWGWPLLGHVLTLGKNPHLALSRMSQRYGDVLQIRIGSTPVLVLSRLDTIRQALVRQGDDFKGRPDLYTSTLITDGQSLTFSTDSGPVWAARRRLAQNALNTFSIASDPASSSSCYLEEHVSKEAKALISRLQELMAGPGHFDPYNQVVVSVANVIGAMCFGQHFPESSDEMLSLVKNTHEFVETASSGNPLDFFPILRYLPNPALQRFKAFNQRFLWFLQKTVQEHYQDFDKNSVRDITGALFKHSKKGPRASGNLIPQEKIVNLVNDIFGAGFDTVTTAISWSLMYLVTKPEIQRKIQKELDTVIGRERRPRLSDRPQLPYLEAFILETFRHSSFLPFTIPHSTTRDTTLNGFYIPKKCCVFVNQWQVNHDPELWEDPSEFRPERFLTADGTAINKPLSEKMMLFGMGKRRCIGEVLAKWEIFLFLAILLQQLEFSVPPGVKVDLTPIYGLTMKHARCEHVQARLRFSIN

[6] = Metabolic stability in rat liver microsomes assessed as compound remaining at 1 uM after 30 mins in presence of NADPH regeneration system by LC-MS/MS analysis; assay type: ADME, Microsome; conditions: read-out: Stability
[7] = target: Voltage-gated inwardly rectifying potassium channel KCNH2 (Homo sapiens, UniProt Q12809)
Sequence of Voltage-gated inwardly rectifying potassium channel KCNH2 (Q12809 whole entry): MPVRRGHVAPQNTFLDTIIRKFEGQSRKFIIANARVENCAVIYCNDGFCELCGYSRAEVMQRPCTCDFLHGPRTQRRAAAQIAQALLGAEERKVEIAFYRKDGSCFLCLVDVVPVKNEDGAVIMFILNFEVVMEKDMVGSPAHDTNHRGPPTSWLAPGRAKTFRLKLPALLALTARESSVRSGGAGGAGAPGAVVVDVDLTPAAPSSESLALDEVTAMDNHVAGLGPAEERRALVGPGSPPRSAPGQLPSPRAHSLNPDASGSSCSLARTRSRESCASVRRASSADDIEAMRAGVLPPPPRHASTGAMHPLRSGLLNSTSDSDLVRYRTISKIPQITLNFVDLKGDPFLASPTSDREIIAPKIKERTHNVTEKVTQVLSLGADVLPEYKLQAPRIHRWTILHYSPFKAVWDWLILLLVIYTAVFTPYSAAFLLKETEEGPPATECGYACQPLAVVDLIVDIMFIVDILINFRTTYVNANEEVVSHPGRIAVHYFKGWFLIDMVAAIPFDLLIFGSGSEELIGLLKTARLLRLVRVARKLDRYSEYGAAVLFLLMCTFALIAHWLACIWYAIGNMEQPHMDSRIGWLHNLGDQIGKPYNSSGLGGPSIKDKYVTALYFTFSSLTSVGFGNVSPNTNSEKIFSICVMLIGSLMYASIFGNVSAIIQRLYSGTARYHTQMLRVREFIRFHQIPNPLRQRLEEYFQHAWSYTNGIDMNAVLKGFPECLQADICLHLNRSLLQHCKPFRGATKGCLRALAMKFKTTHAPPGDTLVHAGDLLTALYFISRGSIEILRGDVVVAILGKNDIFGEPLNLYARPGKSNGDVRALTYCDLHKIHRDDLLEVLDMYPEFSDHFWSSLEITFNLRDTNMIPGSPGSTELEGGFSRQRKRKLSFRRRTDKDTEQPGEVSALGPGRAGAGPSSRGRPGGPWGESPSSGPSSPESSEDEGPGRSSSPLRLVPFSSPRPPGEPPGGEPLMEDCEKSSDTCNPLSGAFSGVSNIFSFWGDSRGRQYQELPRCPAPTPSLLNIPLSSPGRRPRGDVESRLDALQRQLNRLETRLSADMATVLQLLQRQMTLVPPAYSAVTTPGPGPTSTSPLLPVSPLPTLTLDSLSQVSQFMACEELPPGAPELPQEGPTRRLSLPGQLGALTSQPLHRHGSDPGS
Description: Inhibition of human ERG after 4 hrs by fluorescence polarization assay

[8] = AUC in Sprague-Dawley rat at 9 to 10 mg/kg, po via gavage by LC-MS/MS analysis; assay type: ADME, organism-based; conditions: in vivo
[9] = Oral bioavailability in Sprague-Dawley rat at 9 to 10 mg/kg via gavage by LC-MS/MS analysis; assay type: ADME, organism-based; conditions: in vivo
in vivo [10] = conditions: Sprague-Dawley, rat, plasma, iv, 1 mg/kg
in vivo [11] = conditions: Sprague-Dawley, rat, iv, 1 mg/kg
Description: Volume of distribution at steady state in Sprague-Dawley rat at 1 mg/kg, iv by LC-MS/MS analysis

[12] = target: T3, Steroid hormone receptor ERR2 (Homo sapiens, UniProt O95718); assay: Binding affinity to ERRbeta (unknown origin) using fluorescein-conjugated coactivator PGC-1alpha incubated for 1 hr by TR-FRET assay
T3 sequence (O95718 whole entry): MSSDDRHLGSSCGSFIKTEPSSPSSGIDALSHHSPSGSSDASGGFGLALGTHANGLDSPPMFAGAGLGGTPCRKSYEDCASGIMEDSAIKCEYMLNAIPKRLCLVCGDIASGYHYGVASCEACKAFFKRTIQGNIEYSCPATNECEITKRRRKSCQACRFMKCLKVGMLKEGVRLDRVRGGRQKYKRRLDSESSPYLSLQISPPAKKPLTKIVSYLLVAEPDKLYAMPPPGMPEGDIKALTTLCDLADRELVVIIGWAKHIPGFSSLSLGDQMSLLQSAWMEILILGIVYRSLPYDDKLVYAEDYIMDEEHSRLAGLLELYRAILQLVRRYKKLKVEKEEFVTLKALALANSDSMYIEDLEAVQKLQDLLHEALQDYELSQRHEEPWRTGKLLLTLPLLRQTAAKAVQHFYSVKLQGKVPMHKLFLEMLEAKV

Estrogen receptor = target: T4, Estrogen receptor (Homo sapiens, UniProt P03372)
T4 sequence (P03372 whole entry): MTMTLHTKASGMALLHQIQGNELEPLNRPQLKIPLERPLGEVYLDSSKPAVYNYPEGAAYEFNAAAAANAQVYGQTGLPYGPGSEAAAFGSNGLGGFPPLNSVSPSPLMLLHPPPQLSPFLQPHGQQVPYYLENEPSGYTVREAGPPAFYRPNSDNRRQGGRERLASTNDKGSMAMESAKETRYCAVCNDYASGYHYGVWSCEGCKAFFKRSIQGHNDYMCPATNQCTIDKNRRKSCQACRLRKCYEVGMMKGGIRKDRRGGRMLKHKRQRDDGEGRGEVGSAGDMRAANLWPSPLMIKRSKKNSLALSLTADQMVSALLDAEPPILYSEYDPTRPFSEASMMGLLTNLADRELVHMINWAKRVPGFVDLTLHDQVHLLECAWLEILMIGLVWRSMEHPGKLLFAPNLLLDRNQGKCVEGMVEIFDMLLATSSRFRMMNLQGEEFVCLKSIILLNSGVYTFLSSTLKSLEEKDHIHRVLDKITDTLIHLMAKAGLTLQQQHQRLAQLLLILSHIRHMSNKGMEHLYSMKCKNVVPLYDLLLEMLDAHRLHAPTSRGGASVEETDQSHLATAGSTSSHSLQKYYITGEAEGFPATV

in vivo [13] = conditions: Sprague-Dawley, rat, iv, 1 mg/kg; remark: listed apart in the source
[14] = Cmax in Sprague-Dawley rat at 9 to 10 mg/kg, po via gavage by LC-MS/MS analysis; assay type: ADME, organism-based; conditions: in vivo
[15] = AUC (0 to infinity) in Sprague-Dawley rat at 1 mg/kg, iv by LC-MS/MS analysis; assay type: ADME, organism-based; set-up: dose 1 mg/kg, time infinity, route intravenous; conditions: in vivo
[16] = Tmax in Sprague-Dawley rat at 9 to 10 mg/kg, po via gavage by LC-MS/MS analysis; assay type: ADME, organism-based; conditions: in vivo
[17] = AUC (0 to infinity) in Sprague-Dawley rat at 9 to 10 mg/kg, po via gavage by LC-MS/MS analysis; assay type: ADME, organism-based; conditions: in vivo
[18] = Terminal half life in Sprague-Dawley rat at 1 mg/kg, iv by LC-MS/MS analysis; assay type: ADME, organism-based; conditions: in vivo, read-out: beta t1/2 (converted)

CC(C)N1CCN(c2ccc(/C(=C(/CCCO)c3ccccc3)c3ccc(O)cc3)cc2)CC1.Cl.Cl
remaining at 0.5 h, 1 µM [1]: 49.7% | remaining at 0.5 h, 1 µM [2]: 19.9% | Papp at 5 h, 10 µM [3]: 0.46 ×10⁻⁶ cm/s | inhibition at 0.25 h, 10 µM (CYP2C19): 18.8% | inhibition at 0.25 h, 10 µM (CYP2C9): 13.9% | inhibition at 0.25 h, 10 µM (CYP3A4): 33.6% | remaining at 0.5 h, 1 µM [4]: 26.6% | inhibition at 0.25 h, 10 µM (CYP2D6): 36.5% | IC50 [5]: > 10 µM | inhibition at 0.25 h, 10 µM (CYP1A2): 12% | remaining at 0.5 h, 1 µM [6]: 32.5% | IC50 [7]: 18.7 µM

CN(C)CCOc1ccc(/C(=C(/CCCO)c2ccccc2)c2ccc(O)cc2)cc1.Cl
AUC [8]: 0.68 µM·h | bioavailability [9]: 8.4% | clearance (in vivo [10]): 44 mL/min/kg | Vd (in vivo [11]): 16.8 L/kg

Cc1ccc(/C(=C(\CCCO)c2ccccc2)c2ccc(N3CCNCC3)cc2)cc1.Cl.Cl
remaining at 0.5 h, 1 µM [1]: 58% | remaining at 0.5 h, 1 µM [2]: 28.8% | Papp at 5 h, 10 µM [3]: 3.61 ×10⁻⁶ cm/s | inhibition at 0.25 h, 10 µM (CYP2C19): 57.7% | inhibition at 0.25 h, 10 µM (CYP2C9): 39.3% | IC50 [12]: 2100 nM | IC50 (Estrogen receptor): > 10 µM | inhibition at 0.25 h, 10 µM (CYP3A4): 59.9% | remaining at 0.5 h, 1 µM [4]: 44% | inhibition at 0.25 h, 10 µM (CYP2D6): 38.5% | IC50 [5]: > 10 µM | inhibition at 0.25 h, 10 µM (CYP1A2): 28.7% | remaining at 0.5 h, 1 µM [6]: 71.5%

Cc1ccc(/C(=C(\CCCO)c2ccccc2)c2ccc(N3CCN(C)CC3)cc2)cc1.Cl.Cl
AUC (in vivo [13]): 0.28 µM·h | remaining at 0.5 h, 1 µM [2]: 47.6% | Papp at 5 h, 10 µM [3]: 4.84 ×10⁻⁶ cm/s | inhibition at 0.25 h, 10 µM (CYP2C19): 27.2% | inhibition at 0.25 h, 10 µM (CYP2C9): 37.7% | IC50 (Estrogen receptor): > 10 µM | Cmax [14]: 80 nM | AUC [8]: 0.45 µM·h | bioavailability [9]: 18.3% | AUC(0-inf) [15]: 0.29 µM·h | clearance (in vivo [10]): 139 mL/min/kg | inhibition at 0.25 h, 10 µM (CYP3A4): 29.1% | remaining at 0.5 h, 1 µM [4]: 79.2% | inhibition at 0.25 h, 10 µM (CYP2D6): 31.8% | Tmax [16]: 2.8 h | AUC(0-inf) [17]: 0.66 µM·h | IC50 [5]: > 10 µM | inhibition at 0.25 h, 10 µM (CYP1A2): 0% | remaining at 0.5 h, 1 µM [6]: 65.7% | IC50 [7]: 18.9 µM | Vd (in vivo [11]): 30.3 L/kg | half-life [18]: 150 min

Cc1ccc(/C(=C(\CCCO)c2ccccc2)c2ccc(N3CCN(C(C)C)CC3)cc2)cc1.Cl.Cl
AUC (in vivo [13]): 0.58 µM·h | remaining at 0.5 h, 1 µM [2]: 19.7% | Papp at 5 h, 10 µM [3]: 2.09 ×10⁻⁶ cm/s | inhibition at 0.25 h, 10 µM (CYP2C19): 30.3% | inhibition at 0.25 h, 10 µM (CYP2C9): 26.6% | IC50 (Estrogen receptor): > 10 µM | Cmax [14]: 160 nM | AUC [8]: 1.02 µM·h | bioavailability [9]: 17.6% | AUC(0-inf) [15]: 0.64 µM·h | clearance (in vivo [10]): 58 mL/min/kg | inhibition at 0.25 h, 10 µM (CYP3A4): 47% | remaining at 0.5 h, 1 µM [4]: 54.2% | inhibition at 0.25 h, 10 µM (CYP2D6): 31.1% | Tmax [16]: 4 h | AUC(0-inf) [17]: 1.41 µM·h | IC50 [5]: > 10 µM | inhibition at 0.25 h, 10 µM (CYP1A2): 10.2% | remaining at 0.5 h, 1 µM [6]: 40% | IC50 [7]: > 30 µM | Vd (in vivo [11]): 9.8 L/kg | half-life [18]: 186 min

Source: ChEMBL document CHEMBL4411321, “Discovery of Potent, Selective, and Orally Bioavailable Estrogen-Related Receptor-γ Inverse Agonists To Restore the Sodium Iodide Symporter Function in Anaplastic Thyroid Cancer” (J Med Chem, 2019)
